Values after ≈ are worked out from the molar mass of the structure shown.
Key:
[1] = system: Aspergillus niger (An); assay: Minimum inhibitory concentration (MIC), yeast/fungi in malt yeast agar; format: cell-based, Aspergillus niger ATCC 16404; conditions: 30° C., 72 hours for fungi
Procedure: (§1) The minimum inhibitory concentration (MIC) for the compounds listed in Table I is determined for 9 bacteria, using nutrient agar, and 7 yeast and fungi, using malt yeast agar. A one percent solution of the test compound is prepared in a mixture of acetone and water.
(§2) Malt yeast agar is prepared by adding 3 g yeast extract and 45 g malt agar per liter of deionized water. The specific agar is dispensed in 30 mL aliquots into 25×200 mm test tubes, capped and autoclaved for 15 minutes at 115° C.
(§3) The test tubes containing the agar are cooled in a water bath until the temperature of the agar is 48° C. Then, an appropriate amount of the one percent solution of the test compound is added (except in the controls where no compound is added) to the respective test tubes so that the final concentrations are 500, 250, 100, 50, 25, 10, 5, 2.5, 1.0 and zero parts per million of the test compound in the agar, thus having a known concentration of test compound dispersed therein. The contents of the test tubes are then transferred to respective petri plates. After drying for 24 hours, the petri plates containing nutrient agar are inoculated with bacteria and those containing malt yeast agar are inoculated with yeast and fungi.
(§4) The inoculation with the yeast and fungi is accomplished as follows. Cultures of yeast and fungi are incubated for seven days on malt yeast agar at 30° C. These cultures are used to prepare suspensions by the following procedure. A suspension of each organism is prepared by adding 10 mL of sterile saline and 10 microliters of octylphenoxy polyethoxy ethanol to the agar slant of yeast or fungi. The sterile saline/octylphenoxy polyethoxy ethanol solution is then agitated with a sterile swab to suspend the microorganism grown on the slant. Each resulting suspension is diluted into sterile saline (1 part suspension to 9 parts sterile saline). Aliquots of these dilutions are placed in individual wells of Steer's Replicator and petri plates inoculated as previously described. The petri plates are incubated at 30° C. and read after 48 hours for yeast and 72 hours for fungi.
(§5) Table II lists the bacteria, yeast and fungi used in the MIC test described above along with their respective American Type Culture Collection (ATCC) identification numbers.
(§6) In Tables III and IV, the MIC values of the compounds described in Table I as compared to the MIC of a standard commercial preservative (with 1-(3-chloroallyl)-3,5,7-triaza-1-azoniaadamantane chloride as the active agent and referred to in Tables III and IV as "STANDARD I") are set forth for the bacteria organisms and yeast/fungi organisms which are listed in Table II.

[2] = system: marine organisms; assay: Marine antifouling activity, coated test panels exposed to marine environment; conditions: 6 weeks, scale 10 (completely free of growth) to 0 (completely covered)
Procedure: Test panels are prepared from clear, rigid polyvinyl chloride film that is 0.381×10^-3 m thick and has one textured surface. The test panels are 0.1524 m by 0.1524 m squares that have 0.00635 m holes punched at corners on 0.127 m centers. A 0.102 square template, with a 0.067 m diameter hole at the center, is attached to the center of the textured surface of the test panels.
A candidate marine antifoulant compound (1.0 g) is stirred into a resinous latex binder (9.0 g). A portion of the compound/binder mixture (1.5 g) is added to the center of the test panel and uniformly spread over the circular area inside the template.
Water is added dropwise as needed to properly spread the compound/binder mixture. The template prevents the compound/binder mixture from spreading beyond the uncovered area. […] The template is then removed. The test panel is then allowed to dry for 8 to 12 hours at room temperature.
Two test panels are prepared for each candidate marine antifoulant compound. Two control test panels are also prepared by only treating with the resinous latex binder. One test panel of each candidate marine […] compound is attached over a white background to the topside of an exposure support apparatus. The second test panel is attached over a black background to the underside of the exposure support apparatus. The exposure support apparatus is placed horizontally 0.0254 m under a marine surface with the white background topside facing up.
After being removed from the exposure support apparatus, each test panel is inspected and rated for marine organism growth on both the treated and untreated areas of the test panel. The marine organisms present on the treated and untreated areas are noted. The presence of algae spores and bacterial slime are noted but not included in rating each test panel. The test panels are rated on a scale from 10 (representing completely free of marine organism growth) to 0 (representing completely covered with marine organism growth).
In addition, test panels were prepared using tributyl tin oxide, a known marine antifouling compound.

[3] = system: Enterobacter aerogenes (Ea); assay: Minimum inhibitory concentration (MIC), bacteria in nutrient agar; format: cell-based, Enterobacter aerogenes ATCC 13048; conditions: Klebsiella aerogenes, 48 hours
Procedure: as §1
(§7) Nutrient agar is prepared at pH 6.8, representing a neutral medium, and at pH 8.2, representing an alkaline medium. The nutrient agars are prepared by adding 23 g of nutrient agar to one liter of deionized water. In addition, the alkaline medium is prepared by adjusting a 0.04M solution of N-[tris-(hydroxymethyl)methyl]glycine buffered deionized water with concentrated sodium hydroxide to a pH of 8.5.
as §3
(§8) The inoculation with bacteria is accomplished by using the following procedure. Twenty-four hour-cultures of each of the bacteria are prepared by incubating the respective bacteria in tubes containing nutrient broth for 24 hours at 30° C. in a shaker. Dilutions of each of the 24 hour-cultures are made so that nine separate suspensions (one for each of the nine test bacteria) are made, each containing 10^8 colony forming units (CFU) per mL of suspension of a particular bacteria. Aliquots of 0.3 mL of each of the bacterial suspensions are used to fill the individual wells of Steer's Replicator. For each microbial suspension, 0.3 mL was used to fill three wells (i.e., three wells of 0.3 mL each) so that for the nine different bacteria, 27 wells are filled. The Steer's Replicator is then used to inoculate both the neutral and alkaline pH nutrient agar petri plates.
(§9) The inoculated petri plates are incubated at 30° C. for 48 hours and then read to determine if the test compound which is incorporated into the agar prevented growth of the respective bacteria.
as §5, §6

[4] = system: Klebsiella pneumoniae (Kp); assay: as above; format: cell-based, Klebsiella pneumoniae ATCC 8308; conditions: 48 hours
Procedure: as §1, §7, §3, §8, §9, §5, §6

[5] = system: Staphylococcus aureus (Sa); assay: as above; format: cell-based, Staphylococcus aureus ATCC 6538; conditions: 48 hours
Procedure: as §1, §7, §3, §8, §9, §5, §6

[6] = system: Proteus vulgaris (Pv); assay: as above; format: cell-based, Proteus vulgaris ATCC 881; conditions: 48 hours
Procedure: as §1, §7, §3, §8, §9, §5, §6

[7] = system: Salmonella choleraesuis (Sc); assay: as above; format: cell-based, Salmonella choleraesuis ATCC 10708; conditions: Salmonella enterica, 48 hours
Procedure: as §1, §7, §3, §8, §9, §5, §6

[8] = system: Saccharomyces cerevisiae (Sc); assay: Minimum inhibitory concentration (MIC), yeast/fungi in malt yeast agar; format: cell-based, Saccharomyces cerevisiae ATCC 4105; conditions: 30° C., 48 hours for yeast
Procedure: as §1, §2, §3, §4, §5, §6

[9] = system: Candida albicans (Ca); assay: as above; format: cell-based, Candida albicans ATCC 10231; conditions: 30° C., 48 hours for yeast
Procedure: as §1, §2, §3, §4, §5, §6

[10] = system: Pseudomonas aeruginosa (Pa); assay: Minimum inhibitory concentration (MIC), bacteria in nutrient agar; format: cell-based, Pseudomonas aeruginosa ATCC 10145; conditions: 48 hours
Procedure: as §1, §7, §3, §8, §9, §5, §6

[11] = system: Fusarium oxysporum (Fo); assay: Minimum inhibitory concentration (MIC), yeast/fungi in malt yeast agar; format: cell-based, Fusarium oxysporum ATCC 48112; conditions: 30° C., 72 hours for fungi
Procedure: as §1, §2, §3, §4, §5, §6

[12] = system: Aureobasidium pullulan (Ap); assay: as above; format: cell-based, Aureobasidium pullulan ATCC 16622; conditions: 30° C., read after 48 hours for yeast and 72 hours for fungi
Procedure: as §1, §2, §3, §4, §5, §6

[13] = system: Escherichia coli (Ec); assay: Minimum inhibitory concentration (MIC), bacteria in nutrient agar; format: cell-based, Escherichia coli ATCC 11229; conditions: 48 hours
Procedure: as §1, §7, §3, §8, §9, §5, §6

[14] = system: Pseudomonas aeruginosa (PRD-10); assay: as above; format: cell-based, Pseudomonas aeruginosa ATCC 15442; conditions: 48 hours
Procedure: as §1, §7, §3, §8, §9, §5, §6

[15] = system: Trichoderma viride (Tv); assay: Minimum inhibitory concentration (MIC), yeast/fungi in malt yeast agar; format: cell-based, Trichoderma viride ATCC 8678; conditions: 30° C., 72 hours for fungi
Procedure: as §1, §2, §3, §4, §5, §6

[16] = system: Penicillium chrysogenum (Pc); assay: as above; format: cell-based, Penicillium chrysogenum ATCC 9480; conditions: 30° C., 72 hours for fungi
Procedure: as §1, §2, §3, §4, §5, §6

[17] = system: Bacillus subtilis (Bs); assay: Minimum inhibitory concentration (MIC), bacteria in nutrient agar; format: cell-based, Bacillus subtilis ATCC 8473; conditions: 48 hours
Procedure: as §1, §7, §3, §8, §9, §5, §6

SMILES | MIC [1] | MIC ([3]; nutrient agar pH 6.8, 30° C.) | MIC ([3]; nutrient agar pH 8.2, 30° C.) | MIC ([4]; nutrient agar pH 6.8, 30° C.) | MIC ([4]; nutrient agar pH 8.2, 30° C.) | MIC ([5]; nutrient agar pH 6.8, 30° C.) | MIC ([5]; nutrient agar pH 8.2, 30° C.) | MIC ([6]; nutrient agar pH 6.8, 30° C.) | MIC ([6]; nutrient agar pH 8.2, 30° C.) | MIC ([7]; nutrient agar pH 6.8, 30° C.) | MIC ([7]; nutrient agar pH 8.2, 30° C.) | MIC [8] | MIC [9] | MIC ([10]; nutrient agar pH 8.2, 30° C.) | MIC [11] | MIC [12] | MIC ([13]; nutrient agar pH 6.8, 30° C.) | MIC ([13]; nutrient agar pH 8.2, 30° C.) | MIC ([14]; nutrient agar pH 6.8, 30° C.) | MIC ([14]; nutrient agar pH 8.2, 30° C.) | also measured
N#CSCSc1nnnn1-c1ccccc1 [Example I, 1-Phenyl-5-thiomethylthiocyanato-1H-tetrazole] | 5 µg/mL (≈ 20.1 µM) | 250 µg/mL (≈ 1000 µM) | 500 µg/mL (≈ 2010 µM) | 100 µg/mL (≈ 401 µM) | 100 µg/mL (≈ 401 µM) | 25 µg/mL (≈ 100 µM) | 50 µg/mL (≈ 201 µM) | 25 µg/mL (≈ 100 µM) | 100 µg/mL (≈ 401 µM) | 100 µg/mL (≈ 401 µM) | 250 µg/mL (≈ 1000 µM) | 5 µg/mL (≈ 20.1 µM) | 25 µg/mL (≈ 100 µM) | 100 µg/mL (≈ 401 µM) | 10 µg/mL (≈ 40.1 µM) | 2.5 µg/mL (≈ 10 µM) | 50 µg/mL (≈ 201 µM) | 250 µg/mL (≈ 1000 µM) | 250 µg/mL (≈ 1000 µM) | 250 µg/mL (≈ 1000 µM) | Marine Antifouling Rating, 6 Week Test, Bottom Panel ([2]; bottom panel (black background)): 9; Marine Antifouling Rating, 6 Week Test, Top Panel ([2]; top panel (white background)): 9; MIC ([10]; nutrient agar pH 6.8, 30° C.): 100 µg/mL (≈ 401 µM); MIC [15]: 25 µg/mL (≈ 100 µM); MIC [16]: 2.5 µg/mL (≈ 10 µM); MIC ([17]; nutrient agar pH 6.8, 30° C.): < 10 µg/mL; MIC ([17]; nutrient agar pH 8.2, 30° C.): 50 µg/mL (≈ 201 µM)
N#CSCSc1nnnn1-c1ccc(C#N)cc1 [XII, 1-(4-Cyanophenyl)-5-thiomethylthiocyanato-1H-tetrazole] | < 10 µg/mL | 500 µg/mL (≈ 1820 µM) | > 400 µg/mL | 100 µg/mL (≈ 365 µM) | 100 µg/mL (≈ 365 µM) | 20 µg/mL (≈ 72.9 µM) | 100 µg/mL (≈ 365 µM) | 100 µg/mL (≈ 365 µM) | 200 µg/mL (≈ 729 µM) | 500 µg/mL (≈ 1820 µM) | 400 µg/mL (≈ 1460 µM) | 40 µg/mL (≈ 146 µM) | 200 µg/mL (≈ 729 µM) | 200 µg/mL (≈ 729 µM) | 20 µg/mL (≈ 72.9 µM) | < 10 µg/mL | 200 µg/mL (≈ 729 µM) | 400 µg/mL (≈ 1460 µM) | 500 µg/mL (≈ 1820 µM) | 400 µg/mL (≈ 1460 µM) | MIC [15]: 40 µg/mL (≈ 146 µM); MIC [16]: < 10 µg/mL; MIC ([17]; nutrient agar pH 6.8, 30° C.): < 10 µg/mL; MIC ([17]; nutrient agar pH 8.2, 30° C.): 40 µg/mL (≈ 146 µM)
